Measured values taken from patent publication US10857180B2, “Pharmaceutical composition for improving health, cure abnormalities and degenerative disease, achieve anti-aging effect of therapy and therapeutic effect on mammals and method thereof” (priority 2014, dated 2020).

Key:
[1] = Acute toxicity / tolerated dose in healthy mice; type: in vivo, mouse; set-up: weight of experimental animals: unit not given here; conditions: for animals in the group alive: 24 days
Text: To this end, the effects of the agent according to the invention on the basic physiological functions of healthy animals were studied. 70 male Cs7Bl/6J mice at the age of 7-8 weeks, weighing 18-23 g were used in the experiment. The animals were taken from R. E. Kavetsky IEPOR NASU Vivarium. Before the experiment, all the animals were healthy, with normal behavioral performance. During the experiment, the animals were kept in plastic cages under natural light illumination, on a standard diet with free access to food and water.
Clinical observations were carried out by daily examination of all animals kept in cages to identify mortality or any signs of a deviation in health status. […] All deviations were recorded. The size of the tumors was measured every 2 days (3 times a week) after the apparent onset of ascites/tumor node growth (at day 8 after the inoculation of tumor cells). Dying animals were euthanized, weighed and necropsied. The decision to euthanize such animals was taken jointly with the research supervisor and veterinarian. The animals were subjected to complete necrosis, which included examination of the external surface of the body, all passages, cranial, thoracic, abdominal cavities and their contents.
In the experiment, the animals were administered the solution comprising ^64Zne aspartate intraperitoneally at doses of 120 μg/mouse, 80 μg/mouse, 50 μg/mouse and 25 μg/mouse, and intravenously at doses of 50 μg/mouse, 25 gig/mouse and 12.5 μg/mouse. The agent was dissolved in deuterium-depleted water and injected 7 times every other day for 14 days in a volume of 0.5 ml/mouse for intraperitoneal injection and in a volume of 0.2 ml for intravenous injection with the agent. In order to determine the maximum tolerated dose of ^64Zne aspartate included in the composition of the agent according to the invention, the laboratory mice were injected with the ^64Zne aspartate solution using a series of injections (7 injections) and different routes of administration (i.p. or i.v.). The animals were observed during 24 days after the first administration of the agent (14 days for a series of injections of the ^64Zne compound and 10 days after the last administration of the agent). The overall health of the animals, state of coat and mucous membranes, their behavior, reflexes, and basic functions of the gastrointestinal tract were evaluated.

[2] = test system: normal rat kidney cells (NRK line); experiment: Immunocytochemistry of NRK cells; type: cell-based
Procedure: When making the immunocytochemistry (ICC) assay, cells on microscope glasses (cytospin preparations) were fixed in the solution (methanol+acetone 1:1) for 2 hours at t 20° C. and incubated with 1% solution of bovine serum albumin (BSA) for 20 minutes. Then the monoclonal antibodies-CD44 (Diagnostic BioSystems), E-cadherin (ThermoScientific), N-cadherin (NeoMarker, BioLegend), SLUG (GeneTex)—were applied for the time period specified by the manufacturer (30 to 60 minutes), after which the Poly Vue imaging system conjugated with peroxidase was used and the enzyme activity was detected using diaminobenzidine (ThermoScientific) as a substrate. After the immunocytochemical reaction the preparations were washed with water and counterstained with hematoxylin-eosin (for 15 to 30 seconds).
The results were analyzed by counting cells with expression (brown colored cells) using a light microscope, and were assessed using the classical H-Score method: S=1×A+2×B+3×C, where S is the H-Score index giving a range of 0 (protein is not detected) to 300 (high-level expression in 100% of the cells); A is the percentage of weakly staining cells, B is the percentage of moderately staining cells and C is the percentage of strongly staining cells.

Question: Which results are given for `NC(CC(=O)[O-])C(=O)[O-].[64Zn+2]` (racemic) [^64Zne aspartate, ^64Zn aspartate (racemic)]?
Answer: animals in the group alive ([1]; i.p. 25 μg/mouse x7): 100% of the animals in the group are alive. Locomotor activity is; weight of experimental animals ([1]; i.p. 25 μg/mouse, day 0): 21.1 ± 0.5; weight of experimental animals ([1]; i.p. 25 μg/mouse, day 2): 20.1 ± 0.3; weight of experimental animals ([1]; i.p. 25 μg/mouse, day 4): 18.3 ± 0.7; weight of experimental animals ([1]; i.p. 25 μg/mouse, day 8): 18.4 ± 1; weight of experimental animals ([1]; i.p. 25 μg/mouse, day 11): 18.2 ± 0.9; weight of experimental animals ([1]; i.p. 25 μg/mouse, day 15): 19.2 ± 0.5; weight of experimental animals ([1]; i.p. 25 μg/mouse, day 19): 19.8 ± 0.4; weight of experimental animals ([1]; i.p. 25 μg/mouse, day 24): 20.5 ± 0.6; animals in the group alive ([1]; i.p. 50 μg/mouse x7): 100% of the animals in the group are alive. Locomotor activity is; weight of experimental animals ([1]; i.p. 50 μg/mouse, day 0): 21.3 ± 0.5; weight of experimental animals ([1]; i.p. 50 μg/mouse, day 2): 20.4 ± 0.4; weight of experimental animals ([1]; i.p. 50 μg/mouse, day 4): 19.2 ± 0.6; weight of experimental animals ([1]; i.p. 50 μg/mouse, day 8): 19.8 ± 0.7; weight of experimental animals ([1]; i.p. 50 μg/mouse, day 11): 19.5 ± 0.8; weight of experimental animals ([1]; i.p. 50 μg/mouse, day 15): 19 ± 0.6; weight of experimental animals ([1]; i.p. 50 μg/mouse, day 19): 19.2 ± 0.7; weight of experimental animals ([1]; i.p. 50 μg/mouse, day 24): 20 ± 0.5; animals in the group alive ([1]; i.p. 80 μg/mouse x7): 80% of the animals in the group are alive. Some changes in the; animals died after 4 or 5 injections ([1]; i.p. 80 μg/mouse, 8th or 10th day): agent. 20% of the animals in the group died after 4 or 5 injections; animals with short-lasting diarrhea ([1]; i.p. 80 μg/mouse, 18-24 hours after administration): It should be noted that a short-lasting diarrhea was observed in 40%; body weight loss compared to the control figures ([1]; i.p. 80 μg/mouse, already on the 4th day after first injection): 15-20%; weight of experimental animals ([1]; i.p. 80 μg/mouse, day 0): 21.4 ± 0.4; weight of experimental animals ([1]; i.p. 80 μg/mouse, day 2): 20.5 ± 0.5; weight of experimental animals ([1]; i.p. 80 μg/mouse, day 4): 17.3 ± 0.2; weight of experimental animals ([1]; i.p. 80 μg/mouse, day 8): 17.5 ± 0.1; weight of experimental animals ([1]; i.p. 80 μg/mouse, day 11): 17.3 ± 0.1; weight of experimental animals ([1]; i.p. 80 μg/mouse, day 15): 16.5 ± 0.1; weight of experimental animals ([1]; i.p. 80 μg/mouse, day 19): 17.2 ± 0.2; weight of experimental animals ([1]; i.p. 80 μg/mouse, day 24): 17.6 ± 0.1; animals in the group died ([1]; i.p. 120 μg/mouse, within 48 hours after the first injection): 100% of the animals in the group died within 48 hours after the; animals in the group alive ([1]; i.v. 12.5 μg/mouse x7): 100% of the animals in the group are alive. Locomotor activity is; weight of experimental animals ([1]; i.v. 12.5 μg/mouse, day 0): 21.1 ± 0.4; weight of experimental animals ([1]; i.v. 12.5 μg/mouse, day 2): 20.9 ± 0.3; weight of experimental animals ([1]; i.v. 12.5 μg/mouse, day 4): 20.2 ± 0.5; weight of experimental animals ([1]; i.v. 12.5 μg/mouse, day 8): 20.6 ± 0.9; weight of experimental animals ([1]; i.v. 12.5 μg/mouse, day 11): 20.6 ± 1; weight of experimental animals ([1]; i.v. 12.5 μg/mouse, day 15): 20.9 ± 0.9; weight of experimental animals ([1]; i.v. 12.5 μg/mouse, day 19): 21 ± 0.7; weight of experimental animals ([1]; i.v. 12.5 μg/mouse, day 24): 21.1 ± 0.8; animals in the group alive ([1]; i.v. 25 μg/mouse x7): 100% of the animals in the group are alive. Locomotor activity is; weight of experimental animals ([1]; i.v. 25 μg/mouse, day 0): 21.8 ± 0.3; weight of experimental animals ([1]; i.v. 25 μg/mouse, day 2): 21.3 ± 0.5; weight of experimental animals ([1]; i.v. 25 μg/mouse, day 4): 20.8 ± 0.5; weight of experimental animals ([1]; i.v. 25 μg/mouse, day 8): 21.4 ± 0.5; weight of experimental animals ([1]; i.v. 25 μg/mouse, day 11): 21.4 ± 0.5; weight of experimental animals ([1]; i.v. 25 μg/mouse, day 15): 21.3 ± 0.6; weight of experimental animals ([1]; i.v. 25 μg/mouse, day 19): 21.7 ± 0.4; weight of experimental animals ([1]; i.v. 25 μg/mouse, day 24): 21.6 ± 0.5; animals in the group died ([1]; i.v. 50 μg/mouse, within 10-20 minutes after the first injection): 100% of the animals in the group died within 10-20 minutes after; maximum tolerated dose ([1]; intraperitoneal): 80 μg/mouse; maximum tolerated dose ([1]; intravenously): 25 μg/mouse

Question: Which “phenotype of normal cells” value [2] does the source give for `O=S(=O)([O-])[O-].[64Zn+2]` [^64Zn] here?
Answer: The value was “has not changed”.
